Results taken from patent US11661426B2, “Imidazole-containing inhibitors of ALK2 kinase” (BioCryst Pharmaceuticals, Inc., priority 2017, dated 2023).

Molecular target: ALK2 (Homo sapiens (Human), UniProt Q04771)
Assay: ALK2 inhibition, LanthaScreen Eu Kinase Binding Assay (ThermoFisher Scientific / Life Technologies)
Conditions: read-out: Measured Ki (IC50) Value for Compounds: IC50
Experimental: Biochemical assays to measure the inhibitory effects of the compounds were performed by ThermoFisher Scientific (Life Technologies). ALK2 inhibition was tested using LanthaScreen™ Eu Kinase Binding Assay screening protocol.

ALK2, sequence (Q04771 21-509): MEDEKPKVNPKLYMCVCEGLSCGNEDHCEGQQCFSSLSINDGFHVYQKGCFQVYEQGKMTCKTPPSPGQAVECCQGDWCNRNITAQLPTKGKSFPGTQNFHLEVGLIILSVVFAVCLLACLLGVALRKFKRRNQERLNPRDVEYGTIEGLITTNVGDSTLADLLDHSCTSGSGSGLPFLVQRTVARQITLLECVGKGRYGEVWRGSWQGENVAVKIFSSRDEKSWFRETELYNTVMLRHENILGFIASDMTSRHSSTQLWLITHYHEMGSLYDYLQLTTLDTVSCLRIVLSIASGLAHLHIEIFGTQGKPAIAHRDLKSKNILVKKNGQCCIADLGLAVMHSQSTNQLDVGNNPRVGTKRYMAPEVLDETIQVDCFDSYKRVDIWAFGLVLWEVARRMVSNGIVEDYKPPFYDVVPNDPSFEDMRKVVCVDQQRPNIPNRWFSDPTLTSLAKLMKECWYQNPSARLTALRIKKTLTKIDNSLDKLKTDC

IC50 | SMILES
< 100 nM | COc1cc(OC)cc(-n2cnc(Nc3nc(N4CCC[C@H]4CO)nn4cccc34)c2)c1 [Compound 72c, (S)-(1-(4-((1-(3,5-dimethoxyphenyl)-1H-imidazol-4-yl)amino)pyrrolo[2,1-f][1,2,4]triazin-2-yl)pyrrolidin-2-yl)methanol]
< 100 nM | COc1cc(-n2cnc(Nc3nc(N4CCC[C@H]4CO)nn4c(Br)ccc34)c2)cc(OC)c1OC [Compound 85b, (S)-(1-(7-bromo-4-(1-(3,4,5-trimethoxyphenyl)-1H-imidazol-4-ylamino)pyrrolo[1,2-f][1,2,4]triazin-2-yl)pyrrolidin-2-yl)methanol]
100 to 1000 nM | Cn1cnc(Nc2nc(N3CCN(C(=O)Cc4ccccc4)CC3)nn3cccc23)c1 [Compound 53b, 1-(4-(4-((1-methyl-1H-imidazol-4-yl)amino)pyrrolo[2,1-f][1,2,4]triazin-2-yl)piperazin-1-yl)-2-phenylethanone]
100 to 1000 nM | COc1cc(-n2cnc(Nc3cc(C(=O)N4CCC[C@H]4C(N)=O)cc4ccoc34)c2)cc(OC)c1OC [Compound 411d, (S)-1-(7-((1-(3,4,5-trimethoxyphenyl)-1H-imidazol-4-yl)amino)benzofuran-5-carbonyl)pyrrolidine-2-carboxamide]
< 100 nM | COc1cc(-n2cnc(Nc3nc(N4CCC[C@H]4C(N)=O)nc4cc(C(F)(F)F)ccc34)c2)cc(OC)c1OC [Compound 285a, (S)-1-(7-(trifluoromethyl)-4-((1-(3,4,5-trimethoxyphenyl)-1H-imidazol-4-yl)amino)quinazolin-2-yl)pyrrolidine-2-carboxamide]
100 to 1000 nM | OC[C@@H]1CCCN1c1nc(Nc2cn(-c3ccc4cc[nH]c4c3)cn2)c2cccn2n1 [Compound 65c, (S)-(1-(4-((1-(1H-indol-6-yl)-1H-imidazol-4-yl)amino)pyrrolo[2,1-f][1,2,4]triazin-2-yl)pyrrolidin-2-yl)methanol]
< 100 nM | Cc1cc(OC(F)(F)F)cc(-n2cnc(Nc3nc(N4CCC[C@H]4CO)nn4cccc34)c2)c1 [Compound 331b, (S)-(1-(4-((1-(3-methyl-5-(trifluoromethoxy)phenyl)-1H-imidazol-4-yl)amino)pyrrolo[2,1-f][1,2,4]triazin-2-yl)pyrrolidin-2-yl)methanol]
> 1000 nM | COc1cc(-n2cnc(Nc3nc(N4CCC[C@H]4CO)nn4cccc34)c2)cc(C#N)c1OC [Compound 167f, (S)-5-(4-((2-(2-(hydroxymethyl)pyrrolidin-1-yl)pyrrolo[2,1-f][1,2,4]triazin-4-yl)amino)-1H-imidazol-1-yl)-2,3-dimethoxybenzonitrile]
100 to 1000 nM | COc1cc(-n2cnc(Nc3nc(N4CCC[C@H]4C(N)=O)nc4cccc(F)c34)c2)cc(OC)c1OC [Compound 340c, (S)-1-(5-fluoro-4-((1-(3,4,5-trimethoxyphenyl)-1H-imidazol-4-yl)amino)quinazolin-2-yl)pyrrolidine-2-carboxamide]
< 100 nM | COc1cc(-n2cnc(Nc3nc(N4CCC[C@H]4CO)c4c(C)nn([C@H]5C[C@H](N)C5)c4n3)c2)cc(OC)c1OC [Compound 445c, ((S)-1-(1-((trans)-3-aminocyclobutyl)-3-methyl-6-((1-(3,4,5-trimethoxyphenyl)-1H-imidazol-4-yl)amino)-1H-pyrazolo[3,4-d]pyrimidin-4-yl)pyrrolidin-2-yl)methanol]
100 to 1000 nM | Cn1cnc(Nc2nc(N3CCC[C@H]3CO)nc3ccoc23)c1 [Compound 2a, (S)-(1-(4-((1-methyl-1H-imidazol-4-yl)amino)furo[3,2-d]pyrimidin-2-yl)pyrrolidin-2-yl)methanol]
< 100 nM | COc1cc(-n2cnc(Nc3nc(N4CCC[C@H]4C(N)=O)nc4c(OC(C)C)cccc34)c2)cc(OC)c1OC [Compound 143h, (S)-1-(8-isopropoxy-4-((1-(3,4,5-trimethoxyphenyl)-1H-imidazol-4-yl)amino)quinazolin-2-yl)pyrrolidine-2-carboxamide]
